We go through 23 compounds from ChEMBL document CHEMBL4130493, “An insight into the biological activities of heterocyclic-fatty acid hybrid molecules” (Eur J Med Chem, 2017).

Converted amounts (≈) assume the structure as drawn.

Experiment [1] deals with Escherichia coli. The experiment is described as follows: Antibacterial activity against Escherichia coli MTCC 40 incubated for 24 hrs by serial two-fold dilution method. As to conditions: MTCC 40, 24 h. The format is functional.
The subject of experiment [2] is Pseudomonas aeruginosa. The experiment can be described thus: Antibacterial activity against Pseudomonas aeruginosa MTCC 2453 incubated for 24 hrs by serial two-fold dilution method. The format is functional. To be noted: MTCC 2453, 24 h.
Experiment [3] has as its system Staphylococcus aureus. The experiment is described as follows: Antibacterial activity against Staphylococcus aureus MSSA 22 at 100 ug/mL incubated for 24 hrs by filter paper disc method. In kind it is functional. To be noted: MSSA 22, 24 h, read-out: DIZ.
Experiment [4] concerns Bacillus subtilis. The experiment is described as follows: Antibacterial activity against Bacillus subtilis ATCC 6051 at 100 ug/mL incubated for 24 hrs by filter paper disc method. In kind it is functional. As to conditions: ATCC 6051, 24 h, read-out: DIZ.
The test system of experiment [5] is Escherichia coli. The experiment can be described thus: Antibacterial activity against Escherichia coli K-12 at 100 ug/mL incubated for 24 hrs by filter paper disc method. The format is functional. As to conditions: K-12, 24 h, read-out: DIZ.
Experiment [6] has as its system Salmonella typhimurium. The experiment can be described thus: Antibacterial activity against Salmonella typhimurium MTCC98 at 100 ug/mL incubated for 24 hrs by filter paper disc method. In kind it is functional, Salmonella enterica subsp. enterica serovar Typhimurium. As to conditions: Salmonella enterica, MTCC98, 24 h; read-out: DIZ.
Experiment [7] relates to Candida albicans. The experiment is described as follows: Antifungal activity against Candida albicans IOA-109 at 100 ug/mL incubated for 18 to 48 hrs by agar disc diffusion method. As to conditions: read-out: DIZ. The format is functional.
The test system of experiment [8] is Plasmodium falciparum. The experiment is described as follows: Antimalarial activity against Plasmodium falciparum infected in erythrocytes assessed as inhibition of increase in parasite density after 72 hrs. In kind it is functional, organism-based.
Experiment [9] has as its system A549. The experiment is described as follows: Cytotoxicity in human A549 cells by SRB assay. The format is functional. As to conditions: read-out: TC50 (the source's name). For orientation: In SRB staining, fixed cells bind dye roughly in proportion to their protein.
Experiment [10] deals with Candida albicans. The experiment can be described thus: Antifungal activity against Candida albicans IOA-109 at 50 ug/disc incubated for 5 to 6 days by disc diffusion method. The format is functional. As to conditions: read-out: DIZ.

For orientation: MIC means the smallest concentration in the dilution series that meets the test's criterion for growth inhibition. Read a high MIC as a need for much substance. Take `CCCCCCCCCCCCCCCC(=O)NN1C(=O)CSC1c1ccc(F)cc1` (centres undefined): the MIC in experiment [1] and in [2] was 0.35 to 0.7 µg/mL (≈ 0.777 to 1.55 µM) throughout.
In the case of `CCCCCCCC/C=C\CCCCCCCc1nc(-c2ccccc2)n[nH]1`, the zone of inhibition at 100 µg/mL in experiment [3] was 13.1 to 22.2 mm; in [4], 13.1 to 22.2 mm; in experiment [5] it was 13.1 to 22.2 mm; in experiment [6], 13.1 to 22.2 mm; in experiment [7], 17.2 to 19 mm.
The term EC50 denotes the concentration that produces a half-maximal response. On to `C=C[C@H]1CN2CC[C@H]1C[C@H]2[C@H](O/C=C/C=C/CCCCCCCCCCCCCC)c1ccnc2ccc(OC)cc12`, for which, in experiment [8], the EC50 lay within 7 to 20 µM.
Same read-out and setting: next, `C=C[C@H]1CN2CC[C@H]1C[C@H]2[C@H](O/C=C/C=C/C=C/C=C/C=C/CCCCCCCCCC)c1ccnc2ccc(OC)cc12`: 7 to 20 µM.
In the case of `CCCCCCCCCCCCCCCCCc1nnc(S)o1`, in experiment [9], the CC50 came to 0.143 µM.
For `CCCCCCCC(O)CC/C=C\CCCCCC(=O)n1nnc2ccccc21` (centres undefined), the zone of inhibition at 50 µg/disc in experiment [10] lay within 16 to 20 mm.
Regarding `CCCCCCCCCCCCCCCCCc1nnc(S)n1N`, the CC50 in experiment [9] was found to be 0.282 µM.
For the compound `C=C[C@H]1CN2CC[C@H]1C[C@H]2[C@H](OCCCCCCCCCCCCCCCCCC)c1ccnc2ccc(OC)cc12`, the 50% effective concentration (EC50) in [8] lay within 7 to 20 µM.
Consider `CCCCCCCCCCCCCCCC(=O)NN1C(=O)CSC1c1ccc(O)cc1` (centres undefined), for which the MIC in [1] and in experiment [2] was 0.35 to 0.7 µg/mL (≈ 0.78 to 1.56 µM) throughout.
With `CCCCCCCCCCCCCC(=O)NN1C(=O)CSC1c1ccc(C)cc1` (centres undefined), the MIC in [1] and in [2] was 0.35 to 0.7 µg/mL (≈ 0.836 to 1.67 µM) throughout.
`CCCCCCC(O)C/C=C\CCCCCCCc1nc(-c2cccc(O)c2)n[nH]1` (centres undefined): the zone of inhibition at 100 µg/mL in [3] fell in the range of 13.1 to 22.2 mm; in [4] it was 13.1 to 22.2 mm; in experiment [5], 13.1 to 22.2 mm; in [6] it was 13.1 to 22.2 mm; in experiment [7], 17.2 to 19 mm.
Take `CCCCCCCCCCCCCCCC(=O)NN1C(=O)CSC1c1ccc(Br)cc1` (centres undefined): the MIC in experiment [1] and in [2] was 0.35 to 0.7 µg/mL (≈ 0.684 to 1.37 µM) in each case.
For `CCCCCCCCCCCCCC(=O)NN1C(=O)CSC1c1ccc(F)cc1` (centres undefined), the MIC in [1] and in experiment [2] was 0.35 to 0.7 µg/mL (≈ 0.828 to 1.66 µM) in each case.
In the case of `C=C[C@H]1CN2CC[C@H]1C[C@H]2[C@H](O/C=C/C=C/C=C/C=C/C=C/C=C/CCCCCCCCCC)c1ccnc2ccc(OC)cc12`, in [8], the EC50 fell in the range of 7 to 20 µM.
Still for that read-out and setting: as for `C=C[C@H]1CN2CC[C@H]1C[C@H]2[C@H](OCCCCCCCCCCCC)c1ccnc2ccc(OC)cc12`, the figure is 7 to 20 µM.
`CCCCCCCCCCCCCCCC(=O)NN1C(=O)CSC1c1ccc(C)cc1` (centres undefined): the MIC in experiment [1] and in experiment [2] was 0.35 to 0.7 µg/mL (≈ 0.784 to 1.57 µM) each time.
For `CCCCC/C=C\CCC(O)CCCCCCCc1nc(-c2ccc(O)c(O)c2)n[nH]1` (centres undefined), the zone of inhibition at 100 µg/mL was in the range of 13.1 to 22.2 mm in experiment [3]; 13.1 to 22.2 mm in experiment [4]; 13.1 to 22.2 mm in [5]; 13.1 to 22.2 mm in experiment [6]; 17.2 to 19 mm in experiment [7].
For the compound `CCCCC/C=C\CCC(O)CCCCCCCc1nc(-c2cccc(O)c2)n[nH]1` (centres undefined), the zone of inhibition at 100 µg/mL lay in the range of 13.1 to 22.2 mm in experiment [3]; 13.1 to 22.2 mm in [4]; 13.1 to 22.2 mm in [5]; 13.1 to 22.2 mm in experiment [6]; 17.2 to 19 mm in [7].
Take `C=C[C@H]1CN2CC[C@H]1C[C@H]2[C@H](OCCCCCCCC/C=C\C/C=C\C/C=C\CC)c1ccnc2ccc(OC)cc12`: the EC50 in experiment [8] fell in the range of 7 to 20 µM.
Consider `CCCCCCCCCCCCCCCC(=O)NN1C(=O)CSC1c1ccc([N+](=O)[O-])cc1` (centres undefined), for which the MIC in experiment [1] and in experiment [2] was 0.35 to 0.7 µg/mL (≈ 0.733 to 1.47 µM) each time.
In the case of `CCCCCCCCCCCCCC(=O)NN1C(=O)CSC1c1ccc(Cl)cc1` (centres undefined), the MIC in [1] and in experiment [2] was 0.35 to 0.7 µg/mL (≈ 0.797 to 1.59 µM) throughout.
For the compound `CCCCCCCCCCCCCC(=O)NN1C(=O)CSC1c1ccc(OC)cc1` (centres undefined), the MIC in experiment [1] and in experiment [2] was 0.35 to 0.7 µg/mL (≈ 0.805 to 1.61 µM) throughout.
With `CCCCCCCCCCCCCC(=O)NN1C(=O)CSC1c1ccc([N+](=O)[O-])cc1` (centres undefined), the minimum inhibitory concentration (MIC) in experiment [1] and in experiment [2] was 0.35 to 0.7 µg/mL (≈ 0.778 to 1.56 µM) in each case.
